Reference: PMC10618743 (Cancer Discovery, 2023)

Tests used:
[1] = system: CAL-33 (H1047R PI3Kα) HNSCC xenograft; assay: CAL-33 xenograft efficacy study; assay type: in vivo, mouse; conditions: Alpelisib 50 mg/kg QD, Day 28
[2] = patients; cited from earlier work
Plasma exposure in mice = assay type: in vivo, mouse
[3] = system: NCI-H1048 lung carcinoma xenograft; assay: NCI-H1048 xenograft efficacy study; assay type: in vivo, mouse; conditions: Alpelisib 50 mg/kg QD, Day 23
SKBR3 cells = assay: Cell viability CellTiter-Glo; assay type: cell-based; conditions: Homo sapiens, SK-BR-3; SKBR3, WT PI3Kα; 72 hours; read-out: CTGlo GMean GI50 (95% CI)
Protocol: (§1) Cell viability was measured using CellTiter-Glo (Promega, #G9243). Indicated cell lines were seeded according to Supplementary Table S3 in 50 μL of media in 384-well plates, with 72 hours of treatment at 37°C with 5% CO2.

CAL148 cells = assay: Cell viability CellTiter-Glo; assay type: cell-based; conditions: Homo sapiens, CAL-148; CAL148, H1047R + D350N; 72 hours; read-out: CTGlo GMean GI50 (95% CI)
Protocol: as §1

GP2D cells = assay: Cell viability CellTiter-Glo; assay type: cell-based; conditions: Homo sapiens, H1047L, 72 hours, read-out: CTGlo GMean GI50 (95% CI)
Protocol: as §1

BT20 cells = assay: Cell viability CellTiter-Glo; assay type: cell-based; conditions: Homo sapiens, BT-20; BT20, H1047R + P539R; 72 hours; read-out: CTGlo GMean GI50 (95% CI)
Protocol: as §1

OAW42 cells = assay: Cell viability CellTiter-Glo; assay type: cell-based; conditions: Homo sapiens, OAW-42; OAW42, H1047L; 72 hours; read-out: CTGlo GMean GI50 (95% CI)
Protocol: as §1

T47D cells = assay: Cell viability CellTiter-Glo; assay type: cell-based; conditions: Homo sapiens, H1047R, 72 hours, read-out: CTGlo GMean GI50 (95% CI)
Protocol: as §1

EFM19 cells = assay: Cell viability CellTiter-Glo; assay type: cell-based; conditions: Homo sapiens, EFM-19; EFM19, H1047L; 72 hours; read-out: CTGlo GMean GI50 (95% CI)
Protocol: as §1

HCC1954 cells = assay: Cell viability CellTiter-Glo; assay type: cell-based; conditions: Homo sapiens; HCC1954, H1047R; 72 hours; read-out: CTGlo GMean GI50 (95% CI)
Protocol: as §1

NCIH1048 cells = assay: Cell viability CellTiter-Glo; assay type: cell-based; conditions: Homo sapiens, NCI-H1048; NCIH1048, H1047R + K111R; 72 hours; read-out: CTGlo GMean GI50 (95% CI)
Protocol: as §1

[4] = system: Detroit 562 HNSCC xenograft; assay: Detroit 562 xenograft efficacy study; assay type: in vivo, mouse

**Q.** For `Cc1nc(NC(=O)N2CCC[C@H]2C(N)=O)sc1-c1ccnc(C(C)(C)C(F)(F)F)c1` [alpelisib], which “TGI (%)” value [1] is on record?
**A.** 79%

**Q.** And the “rate of permanent discontinuations” value [2]?
**A.** ≤ 46%

**Q.** What about the “rate of safety-related dose reduction” value [2] of the same compound?
**A.** up to 42%

**Q.** What about the “mouse exposure over exposure of maximum approved human dose” value (Plasma exposure in mice; 50 mg/kg q.d. in mice) of the same compound?
**A.** approximately 2 fold

**Q.** What about the AUC (Plasma exposure in mice; mouse, plasma, oral, mice, 50 mg/kg q.d.) of the same compound?
**A.** ~75000 ng·h/mL

**Q.** What about the “TGI (%)” value [3] of the same compound?
**A.** 87%

**Q.** And the GI50 (SKBR3 cells)?
**A.** 335 nM

**Q.** And the GI50 (CAL148 cells)?
**A.** 962 nM

**Q.** And the GI50 (GP2D cells)?
**A.** 298 nM

**Q.** What about the GI50 (BT20 cells) of the same compound?
**A.** 516 nM

**Q.** And the GI50 (OAW42 cells)?
**A.** 601 nM

**Q.** And the GI50 (T47D cells)?
**A.** 334 nM

**Q.** And the GI50 (EFM19 cells)?
**A.** 127 nM

**Q.** And the GI50 (HCC1954 cells)?
**A.** 384 nM

**Q.** What about the GI50 (NCIH1048 cells) of the same compound?
**A.** 67 nM

**Q.** And the “TGI (%)” value ([4]; Alpelisib 50 mg/kg QD, Day 22)?
**A.** 96%

**Q.** What about the tumor regressions ([4]; STX-478 100 mg/kg q.d., alpelisib 50 mg/kg q.d.) of the same compound?
**A.** tumor regressions in five of the nine study animals
